From publication PMC5515969, “Effects of 31 FDA approved small-molecule kinase inhibitors on isolated rat liver mitochondria” (Archives of Toxicology, 2016)
Where a name gives a salt, the structure may show the parent alone. Read-outs that look alike come from different tables or passages of the source.

Experiments:
[1] = cited from earlier work
[2] = cited from earlier work; remark: listed apart in the source
[3] = test system: isolated rat liver mitochondria; experiment: Mitochondrial oxygen consumption (glutamate/malate or succinate driven, state 4 and state 3); format: biochemical; settings: DMSO treated samples set as 1; for State 3 respiration driven by succinate at 10XCmax: key: 0 indicates that the drug had no effects (negative); for State 3 respiration driven by succinate at 1XCmax: key: 0 indicates that the drug had no effects (negative)
Description: Rats were anesthetized by an intraperitoneal injection of Nembutal and the liver perfused with PBS to remove the blood. The liver was then cut into small pieces and homogenized using a Dounce type homogenizer in the ice-cold isolation buffer (IB) containing 200 mM sucrose, 10 mM Tris-MOPS, 1 mM EGTA (pH 7.4). The sample was then centrifuged at 600g for 10 min. The supernatant was further centrifuged at 7500g for 10 min, and the pellets was washed once with the IB and centrifuged again at 7500g for 10 min to collect mitochondria. […] Before drug treatment, the protein concentration was adjusted to 1 mg/ml using appropriate buffer. […] Briefly, mitochondrial and cytosolic fractions from four different preparations using four rats were diluted using the Laemmli protein loading buffer and subject to SDS-PAGE with 4–20% gradient gels. The proteins were blotted to PVDF membranes and detected using antibodies against GAPDH, ATP5A, UQCRC2, SDHB, and NDUFB8.
The aliquoted stock solutions were kept for less than one month and each tube was used only once. The KIs were added to the mitochondria at 1:1000 dilutions. […] The Cmax data were from clinical trials which used FDA recommend dosages, route of administration, and duration. […] The final concentration of DMSO for drug treatment was always 0.1%, and control treatments were 0.1% DMSO.
Briefly, mitochondria were incubated with the KIs for 5 min, and then split evenly and loaded to the sample tubes of two Oxytherm systems (Hansatech Instruments Ltd), with one system used for measuring glutamate/malate driven respiration and the other succinate-driven respiration, both of which were defined as state 4 respiration. After 3 min, ADP was added to measure the maximal oxygen consumption rate, which was defined as state 3 respiration. […] The oxygen consumption rate of DMSO-treated samples (controls) was set as 1.

RCC I = RCC I activity in submitochondrial particles; format: biochemical, rat; parameters: key to RCC I at 10XCmax / RCC I at 100XCmax / RCC I at 50XCmax / RCC I at 30XCmax / RCC I at 20XCmax: activity relative to DMSO-treated controls (control set as 1 = 100%); settings: 10XCmax; relative to DMSO treated samples
Description: (§1) KIs were incubated with submitochondrial particles (1 mg/ml) for 15 min and then RCC I–V activities measured. […] The activities of DMSO-treated samples (controls) were set as 1. […] The difference between the activity from rotenone-containing buffer and rotenone-absent buffer was considered as RCC I activity. […] For measuring RCC I/V and II activity, the changes in absorbance at 340 and 600 nm, respectively, were determined every 1 min for 6 min. For measuring RCC III and RCC IV, the changes in absorbance at 550 nm were measured every 10 s for 2 min.

RCC II = target: T1, RCC II (Rattus norvegicus, UniProt P21913+Q641Z9+Q6PCT8+Q920L2); experiment: RCC II activity in submitochondrial particles; format: biochemical; parameters: key: activity relative to DMSO-treated controls (control set as 1 = 100%); settings: relative to DMSO treated samples
T1 construct: Submitochondrial particles were prepared by subjecting the intact mitochondria to three successive freeze–thaw cycles; from tissue; host or cells: rat liver mitochondria, used as submitochondrial particles
Description: as §1

RCC V = RCC V activity in submitochondrial particles; format: biochemical, rat; settings: relative to DMSO treated samples; for RCC V at 5XCmax: key: 0 indicates that the drug had no effects (negative)
Description: as §1

[4] = test system: isolated rat liver mitochondria; experiment: Mitochondrial inner membrane potential (MMP), Rhodamine 123; format: biochemical; settings: difference in signal between KI and DMSO treated samples at the end of experiments
Excerpt: Fig. 3 KI effects on mitochondrial inner membrane potential (MMP). […] In a, c, data are means and standard derivations from three separate experiments. *p < 0.05 as compared to DMSO-treated samples at the end of experiments. In b, data are means of two independent experiments

[5] = test system: isolated rat liver mitochondria; experiment: Mitochondrial swelling (absorbance at 535 nm); format: biochemical; settings: difference in signal between KI and DMSO treated samples at the end of experiments; for Swelling 5XCmax: key: 0 indicates that the drug had no effects (negative)
[6] = test system: isolated rat liver mitochondria
[7] = parameters: method as in product labeling; settings: ref product labeling, cited from earlier work
[8] = test system: isolated rat liver mitochondria; experiment: Mitochondrial ROS production (CM-H2DCFDA)
RCC III = RCC III activity in submitochondrial particles; format: biochemical, rat; parameters: key to RCC III at 100XCmax: activity relative to DMSO-treated controls (control set as 1 = 100%); settings: 100XCmax; relative to DMSO treated samples
Description: as §1

RCC IV = RCC IV activity in submitochondrial particles; format: biochemical, rat; parameters: key to RCC IV at 50XCmax / RCC IV at 100XCmax: activity relative to DMSO-treated controls (control set as 1 = 100%); settings: 50XCmax; relative to DMSO treated samples; in %
Description: as §1

[9] = human therapeutic Cmax at FDA recommended dosages, ref product labeling and drug approval packages at the official FDA website
[10] = positive control alamethicin treated samples
[11] = read-out: Cmax at µM, therapeutic maximal blood concentration, ref product labeling
[12] = therapeutic maximal blood concentration, ref product labeling

T1 sequence (Q920L2 35-656): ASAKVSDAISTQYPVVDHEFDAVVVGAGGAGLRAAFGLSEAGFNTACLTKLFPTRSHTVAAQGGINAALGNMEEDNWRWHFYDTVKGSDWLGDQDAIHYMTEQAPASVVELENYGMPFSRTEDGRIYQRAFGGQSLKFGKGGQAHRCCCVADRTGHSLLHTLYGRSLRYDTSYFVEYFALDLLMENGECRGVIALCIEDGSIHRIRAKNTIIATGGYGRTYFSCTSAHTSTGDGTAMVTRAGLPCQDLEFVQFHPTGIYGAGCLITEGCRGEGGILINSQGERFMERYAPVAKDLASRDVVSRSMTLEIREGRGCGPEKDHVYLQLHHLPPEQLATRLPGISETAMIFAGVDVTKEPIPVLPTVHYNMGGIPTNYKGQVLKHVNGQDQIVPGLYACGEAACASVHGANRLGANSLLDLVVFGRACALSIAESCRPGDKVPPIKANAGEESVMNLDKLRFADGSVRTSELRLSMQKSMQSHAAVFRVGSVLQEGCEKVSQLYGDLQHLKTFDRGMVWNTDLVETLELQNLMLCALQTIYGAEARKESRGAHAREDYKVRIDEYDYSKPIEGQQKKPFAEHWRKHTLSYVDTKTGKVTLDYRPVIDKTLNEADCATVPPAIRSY
T1 sequence (P21913 31-282): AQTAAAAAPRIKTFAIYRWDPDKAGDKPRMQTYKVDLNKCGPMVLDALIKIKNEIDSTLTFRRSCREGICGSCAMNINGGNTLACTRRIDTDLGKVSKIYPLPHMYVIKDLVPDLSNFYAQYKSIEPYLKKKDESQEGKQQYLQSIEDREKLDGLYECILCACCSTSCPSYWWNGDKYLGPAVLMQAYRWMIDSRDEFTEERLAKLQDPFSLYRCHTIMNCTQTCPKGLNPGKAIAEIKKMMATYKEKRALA
T1 sequence (Q641Z9 1-169): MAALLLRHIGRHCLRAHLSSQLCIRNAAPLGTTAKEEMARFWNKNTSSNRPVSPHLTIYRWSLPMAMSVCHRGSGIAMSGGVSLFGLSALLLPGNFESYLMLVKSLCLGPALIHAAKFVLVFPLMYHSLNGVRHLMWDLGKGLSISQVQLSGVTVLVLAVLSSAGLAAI
T1 sequence (Q6PCT8 57-159): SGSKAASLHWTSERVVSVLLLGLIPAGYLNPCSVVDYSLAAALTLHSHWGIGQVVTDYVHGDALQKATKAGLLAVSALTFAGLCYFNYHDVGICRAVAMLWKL

Compound: CN(C)C/C=C/C(=O)Nc1cc2c(Nc3ccc(F)c(Cl)c3)ncnc2cc1O[C@H]1CCOC1 [Afatinib]
- Cmax [1, 9]: 0.04 µM
- labeling for DILI ([2]; W&P warnings and precautions, BBW black box warnings, ref FDA product labeling): W&P: ALT↑/monitoring
- DILI potential (based on labeling) ([2]; ref FDA product labeling): 1

Compound: Cc1nc(Nc2ncc(C(=O)Nc3c(C)cccc3Cl)s2)cc(N2CCN(CCO)CC2)n1 [Dasatinib]
- Cmax [1, 9]: 0.18 µM
- DILI potential (based on labeling) ([2]; ref FDA product labeling): 0

Compound: Cc1ccc(NC(=O)c2ccc(CN3CCN(C)CC3)cc2)cc1Nc1nccc(-c2cccnc2)n1 [Imatinib]
- DILI potential (based on labeling) ([2]; in vivo): 1
- labeling for DILI ([2]; in vivo): W&P: fatal DILI

Compound: Cc1cn(-c2cc(NC(=O)c3ccc(C)c(Nc4nccc(-c5cccnc5)n4)c3)cc(C(F)(F)F)c2)cn1 [Nilotinib]
- State 3 respiration driven by succinate at 1XCmax [3]: 0
- State 4 respiration driven by succinate at 1XCmax [3]: 0
- State 3 respiration driven by succinate at 2.5XCmax [3]: 0
- State 4 respiration driven by succinate at 2.5XCmax [3]: 0
- State 3 respiration driven by succinate at 5XCmax [3]: 0
- State 4 respiration driven by succinate at 5XCmax [3]: 0
- State 3 respiration driven by succinate at 10XCmax [3]: 0
- State 4 respiration driven by succinate at 10XCmax [3]: 0
- RCC I at 10XCmax (RCC I): 0
- RCC II at 1.0XCmax (RCC II): 0
- RCC II at 2.5XCmax (RCC II): 0
- RCC II at 5XCmax (RCC II): 0
- RCC II at 10XCmax (RCC II): 0
- RCC V at 5XCmax (RCC V): 0
- MMP measured by Rhodamine 123 at 1XCmax [4]: 0
- MMP measured by Rhodamine 123 at 2.5XCmax [4]: 0
- MMP measured by Rhodamine 123 at 5XCmax [4]: 0
- MMP measured by Rhodamine 123 at 10XCmax [4]: 0
- Swelling 1XCmax [5]: 0
- Swelling 2.5XCmax [5]: 0
- Swelling 5XCmax [5]: 0
- Swelling 10XCmax [5]: 0
- Cytochrome c release 1XCmax [6, 10]: 0
- Cytochrome c release 2.5XCmax [6, 10]: 0
- Cytochrome c release 5XCmax [6, 10]: 0
- Cytochrome c release 10XCmax [6, 10]: 0
- Labeling for cardiotoxicity ([7]; BBW: black box warning, W&P: Warnings and Precautions): BBW: QT Interval Prolongation
- Potential for cardiotoxicity (based on labeling) [7]: 1
- Cmax [1, 9]: 4.27 µM
- Cmax [1, 11]: 4.27 µM
- Cmax [1, 12]: 2260 ng/mL
- ROS measured by CM-H2DCFDA at 1XCmax ([8]; DMSO treated samples set as 1): 0
- ROS measured by CM-H2DCFDA at 2.5XCmax ([8]; DMSO treated samples set as 1): 0
- ROS measured by CM-H2DCFDA at 5XCmax ([8]; DMSO treated samples set as 1): 0
- ROS measured by CM-H2DCFDA at 10XCmax ([8]; DMSO treated samples set as 1): 0

Compound: CC(=O)c1c(C)c2cnc(Nc3ccc(N4CCNCC4)cn3)nc2n(C2CCCC2)c1=O [Palbociclib]
- Cmax [1, 9]: 0.24 µM
- DILI potential (based on labeling) ([2]; ref FDA product labeling): 0

Compound: C[C@@H]1CCN(C(=O)CC#N)C[C@@H]1N(C)c1ncnc2[nH]ccc12 [Tofacitinib]
- lowest concentration causing cytochrome c release ([6]; rat, 30 min, pH 7.4): 100 fold Cmax
- Cmax [1, 9]: 0.09 µM

Compound: [Ca+2].[Cl-].[Cl-] [calcium chloride]
- increase in ROS production ([8]; positive control, 100 µM CaCl2, DMSO-treated = 1): threefold

Compound: Cc1ccc(NC(=O)c2ccc(CN3CCN(C)CC3)cc2)cc1Nc1nccc(-c2cccnc2)n1 [imatinib mesylate]
- Cmax [1, 11]: 2 µM
- Cmax [1, 12]: 986 ng/mL
- Labeling for DILI ([2]; in vivo): W&P: fatal DILI

Compound: CNS(=O)(=O)C[C@H]1CC[C@H](N(C)c2ncnc3[nH]ccc23)CC1 [oclacitinib]
- cytochrome c release from intact mitochondria [6]: significant cytochrome c release

Compound: C[C@@H]1CCN(C(=O)CC#N)C[C@@H]1N(C)c1ncnc2[nH]ccc12 [tofacitinib citrate]
- State 3 respiration driven by succinate at 1XCmax [3]: 0
- State 4 respiration driven by succinate at 1XCmax [3]: 0
- State 3 respiration driven by succinate at 2.5XCmax [3]: 0
- State 4 respiration driven by succinate at 2.5XCmax [3]: 0
- State 3 respiration driven by succinate at 5XCmax [3]: 0
- State 4 respiration driven by succinate at 5XCmax [3]: 0
- State 3 respiration driven by succinate at 10XCmax [3]: 0
- State 4 respiration driven by succinate at 10XCmax [3]: 0
- State 3 respiration driven by succinate at 20XCmax ([3]; 20XCmax): 0
- State 4 respiration driven by succinate at 20XCmax ([3]; 20XCmax): 0
- State 3 respiration driven by succinate at 30XCmax ([3]; 30XCmax): 0
- State 4 respiration driven by succinate at 30XCmax ([3]; 30XCmax): 0
- State 3 respiration driven by succinate at 50XCmax ([3]; 50XCmax): 0
- State 4 respiration driven by succinate at 50XCmax ([3]; 50XCmax): 0
- State 3 respiration driven by succinate at 100XCmax ([3]; 100XCmax): 0
- State 4 respiration driven by succinate at 100XCmax ([3]; 100XCmax): 0
- RCC I at 10XCmax (RCC I): 0
- RCC II at 1.0XCmax (RCC II): 0
- RCC II at 2.5XCmax (RCC II): 0
- RCC II at 5XCmax (RCC II): 0
- RCC II at 10XCmax (RCC II): 0
- RCC II at 20XCmax (RCC II; 20XCmax): 0
- RCC II at 30XCmax (RCC II; 30XCmax): 0
- RCC II at 50XCmax (RCC II; 50XCmax): 0
- RCC II at 100XCmax (RCC II; 100XCmax): 0
- RCC III at 100XCmax (RCC III): 0
- RCC IV at 50XCmax (RCC IV): 0
- RCC V at 5XCmax (RCC V): 0
- RCC V at 50XCmax (RCC V; 50XCmax): 0
- MMP measured by Rhodamine 123 at 1XCmax [4]: 0
- MMP measured by Rhodamine 123 at 2.5XCmax [4]: 0
- MMP measured by Rhodamine 123 at 5XCmax [4]: 0
- MMP measured by Rhodamine 123 at 10XCmax [4]: 0
- MMP measured by Rhodamine 123 at 20XCmax ([4]; 20XCmax): 0
- MMP measured by Rhodamine 123 at 30XCmax ([4]; 30XCmax): 0
- MMP measured by Rhodamine 123 at 50XCmax ([4]; 50XCmax): 0
- MMP measured by Rhodamine 123 at 100XCmax ([4]; 100XCmax): 0
- Swelling 1XCmax [5]: 0
- Swelling 2.5XCmax [5]: 0
- Swelling 5XCmax [5]: 0
- Swelling 10XCmax [5]: 0
- Swelling 20XCmax ([5]; 20XCmax): 0
- Swelling 30XCmax ([5]; 30XCmax): 0
- Swelling 50XCmax ([5]; 50XCmax): 0
- Swelling 100XCmax ([5]; 100XCmax): 0
- Cytochrome c release 1XCmax [6, 10]: 0
- Cytochrome c release 2.5XCmax [6, 10]: 0
- Cytochrome c release 5XCmax [6, 10]: 0
- Cytochrome c release 10XCmax [6, 10]: 0
- Cytochrome c release 20XCmax ([6]; 20XCmax, positive control alamethicin treated samples): 0
- Cytochrome c release 30XCmax ([6]; 30XCmax, positive control alamethicin treated samples): 0
- Cytochrome c release 50XCmax ([6]; 50XCmax, positive control alamethicin treated samples): 0
- Cytochrome c release 100XCmax ([6]; 100XCmax, positive control alamethicin treated samples): 7.22±1.11 percentage of the positive control group
- Cmax [1, 11]: 0.089 µM
- Cmax [1, 12]: 45.1 ng/mL
- ROS measured by CM-H2DCFDA at 1XCmax ([8]; DMSO treated samples set as 1): 0
- ROS measured by CM-H2DCFDA at 2.5XCmax ([8]; DMSO treated samples set as 1): 0
- ROS measured by CM-H2DCFDA at 5XCmax ([8]; DMSO treated samples set as 1): 0
- ROS measured by CM-H2DCFDA at 10XCmax ([8]; DMSO treated samples set as 1): 0
- ROS measured by CM-H2DCFDA at 20XCmax ([8]; 20XCmax, DMSO treated samples set as 1): 0
- ROS measured by CM-H2DCFDA at 30XCmax ([8]; 30XCmax, DMSO treated samples set as 1): 0
- ROS measured by CM-H2DCFDA at 50XCmax ([8]; 50XCmax, DMSO treated samples set as 1): 0
- ROS measured by CM-H2DCFDA at 100XCmax ([8]; 100XCmax, DMSO treated samples set as 1): 0
